Results reported in ChEMBL document CHEMBL1201862, “PubChem BioAssay data set” (2004).
The source made the active and inactive calls.

What was measured:
[1] = target: T1, Ubiquitin-conjugating enzyme E2 N (Homo sapiens, UniProt P61088); format: functional;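 note: Dose-response confirmation in a TR-FRET assay detecting UBC13-driven polyubiquitin chain formation, inhibition measured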
T1 sequence (P61088 whole entry): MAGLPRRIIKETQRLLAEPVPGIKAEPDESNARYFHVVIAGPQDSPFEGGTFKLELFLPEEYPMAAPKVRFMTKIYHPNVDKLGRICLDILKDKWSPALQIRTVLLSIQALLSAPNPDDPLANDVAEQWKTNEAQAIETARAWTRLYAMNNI

[2] = target: T2, DNA repair protein RAD52 homolog (Homo sapiens, UniProt P43351); format: functional, biochemical
T2 sequence (P43351 whole entry): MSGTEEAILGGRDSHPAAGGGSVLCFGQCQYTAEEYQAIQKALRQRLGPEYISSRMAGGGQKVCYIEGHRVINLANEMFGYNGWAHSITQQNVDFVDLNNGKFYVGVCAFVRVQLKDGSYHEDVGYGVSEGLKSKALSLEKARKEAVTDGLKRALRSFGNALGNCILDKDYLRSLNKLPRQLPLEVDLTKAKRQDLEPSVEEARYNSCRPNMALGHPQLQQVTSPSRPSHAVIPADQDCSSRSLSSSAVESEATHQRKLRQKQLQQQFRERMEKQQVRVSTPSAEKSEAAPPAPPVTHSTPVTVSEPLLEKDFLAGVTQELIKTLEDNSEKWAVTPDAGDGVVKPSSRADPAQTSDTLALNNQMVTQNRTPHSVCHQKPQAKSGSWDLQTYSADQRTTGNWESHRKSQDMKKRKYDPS

[3] = LGR2 antagonists, dose response, cell-based, HEK293, CRE-luciferase reporter, cherry pick, set 2 (AID 743343); format: functional;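 note: transfected cells were stimulated with diluted bursicon conditioned medium after compound addition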
[4] = HEK293 cell cytotoxicity, dose response, cytotoxicity control, plate reader, cherry-picked samples (AID 743446); format: functional, cell-based
[5] = MC4R antagonists, dose response, counter-screen for LGR2 antagonist project, cell-based, plate reader, cherry pick (AID 743444); format: functional;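 note: transfected HEK 293 cells stimulated with alpha-MSH peptide; potency of inhibitors of the alpha-MSH evoked signal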
[6] = MDA-MB-231 cell growth inhibition, dose response, cytotoxicity control for RAD54 inhibitor project, CellTiter-Glo luminescence, cherry-pick (AID 651692); format: functional, cell-based
[7] = A549 cell cytotoxicity, dose response, cytotoxicity control, plate reader, cherry-pick, antagonist series (AID 743412); format: functional, cell-based
[8] = HepG2 cell cytotoxicity, dose response, cytotoxicity control, plate reader, cherry-pick, antagonist series (AID 743416); format: functional, cell-based
[9] = target: DNA repair and recombination protein RAD54-like (Homo sapiens, UniProt Q92698); test: inhibitors of human RAD54 branch migration, confirmation, biochemical, fluorescence, cherry-picked samples, dose series (AID 651657); format: functional
[10] = target: T3, High affinity choline transporter 1 (Homo sapiens, UniProt Q9GZV3); test: inhibitors of CHT choline uptake, dose response, cell-based, 3H-choline uptake, CHT LV-AA trafficking mutant, CRC (AID 602208); format: functional
T3 sequence (Q9GZV3 whole entry): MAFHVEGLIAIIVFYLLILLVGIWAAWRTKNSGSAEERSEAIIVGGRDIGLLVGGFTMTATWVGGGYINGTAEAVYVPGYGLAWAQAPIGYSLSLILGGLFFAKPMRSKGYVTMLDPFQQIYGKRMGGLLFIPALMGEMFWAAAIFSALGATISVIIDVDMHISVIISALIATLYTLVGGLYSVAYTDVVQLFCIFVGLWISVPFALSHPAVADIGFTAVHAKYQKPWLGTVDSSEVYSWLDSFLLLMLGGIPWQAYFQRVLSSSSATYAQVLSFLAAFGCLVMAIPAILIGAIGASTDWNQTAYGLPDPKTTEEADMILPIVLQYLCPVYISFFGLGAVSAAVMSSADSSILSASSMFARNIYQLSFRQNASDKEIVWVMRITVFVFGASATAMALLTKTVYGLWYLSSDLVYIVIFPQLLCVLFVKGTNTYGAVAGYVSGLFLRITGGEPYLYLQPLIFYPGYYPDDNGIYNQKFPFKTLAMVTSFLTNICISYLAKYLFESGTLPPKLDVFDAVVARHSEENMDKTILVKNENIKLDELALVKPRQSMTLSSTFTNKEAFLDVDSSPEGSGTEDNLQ

[11] = target: T3, High affinity choline transporter 1; test: CHT inhibitors, dose response, cell-based, 10-point CRC, membrane potential dye (AID 588401); format: functional;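 note: membrane potential dye fluorescence of choline-evoked depolarization via CHT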
[12] = target: T3, High affinity choline transporter 1; test: CHT inhibitors, dose response, cell-based, 5-point CRC, membrane potential dye (AID 504840); format: functional
[13] = target: Nuclear receptor subfamily 5 group A member 2 (Homo sapiens, UniProt O00482); format: functional, cell-based;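 note: HEK293T cells transfected with LRH-1 and a StAR promoter luciferase reporter; potency for inhibitors that lower LRH-1 driven reporter light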
Sequence of Nuclear receptor subfamily 5 group A member 2 (O00482 whole entry): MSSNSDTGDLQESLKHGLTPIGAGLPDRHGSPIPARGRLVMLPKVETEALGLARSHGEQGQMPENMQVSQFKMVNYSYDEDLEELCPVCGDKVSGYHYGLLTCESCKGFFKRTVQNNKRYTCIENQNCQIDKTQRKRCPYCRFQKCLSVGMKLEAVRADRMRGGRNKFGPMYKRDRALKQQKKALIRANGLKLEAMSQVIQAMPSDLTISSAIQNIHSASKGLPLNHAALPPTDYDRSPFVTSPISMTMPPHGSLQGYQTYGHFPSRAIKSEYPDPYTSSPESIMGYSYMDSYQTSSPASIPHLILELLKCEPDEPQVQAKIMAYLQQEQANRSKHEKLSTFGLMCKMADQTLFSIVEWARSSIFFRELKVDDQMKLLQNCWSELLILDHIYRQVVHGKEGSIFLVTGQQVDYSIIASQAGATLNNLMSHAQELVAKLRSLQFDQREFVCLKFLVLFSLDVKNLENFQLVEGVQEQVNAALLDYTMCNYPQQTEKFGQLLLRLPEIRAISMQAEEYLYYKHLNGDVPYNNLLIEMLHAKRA

Steroidogenic factor 1 = Steroidogenic factor 1 (Homo sapiens, UniProt Q13285); test: Counterscreen for inverse agonists of the liver receptor homolog-1 (LRH-1; NR5A2): Luminescence-based cell-based high throughput dose response assay to identify inverse agonists of the Steroidogenic Factor 1 Nuclear Receptor (SF1; NR5A1).; format: functional
Sequence of Steroidogenic factor 1 (Q13285 whole entry): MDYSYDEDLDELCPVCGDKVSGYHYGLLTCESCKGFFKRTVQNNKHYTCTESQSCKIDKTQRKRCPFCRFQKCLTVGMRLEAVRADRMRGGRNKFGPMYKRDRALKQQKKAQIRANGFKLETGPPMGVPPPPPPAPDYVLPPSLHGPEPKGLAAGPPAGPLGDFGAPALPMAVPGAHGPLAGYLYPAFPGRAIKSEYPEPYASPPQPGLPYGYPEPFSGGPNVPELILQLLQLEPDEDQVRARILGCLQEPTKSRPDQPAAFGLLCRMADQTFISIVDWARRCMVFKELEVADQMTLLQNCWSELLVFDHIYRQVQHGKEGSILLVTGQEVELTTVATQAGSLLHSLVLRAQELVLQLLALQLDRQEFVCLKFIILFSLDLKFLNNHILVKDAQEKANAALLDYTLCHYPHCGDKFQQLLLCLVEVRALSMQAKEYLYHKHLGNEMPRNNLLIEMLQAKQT

[14] = StAR promoter reporter inhibition counter-screen, dose response, counter-screen for LRH-1 inverse agonist project, cell-based, luminescence, luciferase reporter (AID 651969); format: functional
[15] = AlphaScreen signal interference compounds, dose response, artefact control for ARNT-TACC3 interaction inhibitor project, biochemical, luminescence, cherry-pick (AID 651705); format: functional;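 note: AlphaScreen bead proximity signal that flags compounds interfering with the detection technology; potency reflects signal decrease which marks the compound as an assay artifact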
HEK293 [16] = test: NOD1 signaling inhibitors, primary screen, cell-based, luminescence, uHTS (AID 1578); format: functional; settings: Homo sapiens
[17] = HepG2 cell cytotoxicity, dose response, cytotoxicity control for Shn3 inhibitor project, CellTiter-Glo, cherry-picked (AID 624134); format: functional, cell-based
HEK293 [18] = test: cells; format: functional, cell-based; settings: Homo sapiens
HEK293 [19] = test: cells; format: functional, cell-based; settings: Homo sapiens; remark: listed apart in the source
[20] = Shn3 3'UTR reporter inhibitors, dose response, cell-based, Clone20 osteoblasts, firefly luciferase, cherry-picked (AID 624132); format: functional;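 note: firefly luciferase luminescence from reporter carrying the Shn3 3'UTR in osteoblasts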
HEK293 [21] = test: cells; format: functional, cell-based; settings: Homo sapiens; remark: listed apart in the source
[22] = target: Nucleotide-binding oligomerization domain-containing protein 2 (Homo sapiens, UniProt Q9HC29); test: NOD2 signaling inhibitors, cell-based, luminescence, uHTS, HEK293 (AID 1566); format: functional
Sequence of Nucleotide-binding oligomerization domain-containing protein 2 (Q9HC29 whole entry, the tested form may be a part): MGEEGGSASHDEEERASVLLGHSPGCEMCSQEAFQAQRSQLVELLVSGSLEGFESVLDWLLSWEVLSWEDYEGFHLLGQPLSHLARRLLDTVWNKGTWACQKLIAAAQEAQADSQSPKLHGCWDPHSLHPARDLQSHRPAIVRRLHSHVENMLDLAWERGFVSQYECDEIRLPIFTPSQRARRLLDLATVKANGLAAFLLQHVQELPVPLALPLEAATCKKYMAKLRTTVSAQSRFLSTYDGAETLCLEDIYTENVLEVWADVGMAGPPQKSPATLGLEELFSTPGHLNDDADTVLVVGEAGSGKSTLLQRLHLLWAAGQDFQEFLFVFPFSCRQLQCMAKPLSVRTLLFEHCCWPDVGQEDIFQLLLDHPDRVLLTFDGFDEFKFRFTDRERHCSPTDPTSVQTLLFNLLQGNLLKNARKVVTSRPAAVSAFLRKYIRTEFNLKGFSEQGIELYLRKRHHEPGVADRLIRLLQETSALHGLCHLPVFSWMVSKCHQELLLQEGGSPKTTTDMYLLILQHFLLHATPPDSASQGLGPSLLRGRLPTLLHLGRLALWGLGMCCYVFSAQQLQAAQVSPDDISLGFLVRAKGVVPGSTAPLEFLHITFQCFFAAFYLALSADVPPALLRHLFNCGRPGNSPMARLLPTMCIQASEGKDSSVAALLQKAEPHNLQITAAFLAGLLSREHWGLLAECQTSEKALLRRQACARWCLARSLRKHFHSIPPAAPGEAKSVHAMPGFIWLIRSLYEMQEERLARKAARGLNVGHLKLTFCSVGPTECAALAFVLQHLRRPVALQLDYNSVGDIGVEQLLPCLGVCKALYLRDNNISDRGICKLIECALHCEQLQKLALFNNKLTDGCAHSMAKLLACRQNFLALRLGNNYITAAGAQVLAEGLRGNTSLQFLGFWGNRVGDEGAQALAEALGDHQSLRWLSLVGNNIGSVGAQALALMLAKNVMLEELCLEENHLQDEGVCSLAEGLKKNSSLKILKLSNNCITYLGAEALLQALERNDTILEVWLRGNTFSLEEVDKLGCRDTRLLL

[23] = control 3'UTR Renilla luciferase suppression, dose response, counter-screen for Shn3 inhibitor project, cell-based, Clone20-Shn3RL, cherry-picked (AID 624133); format: functional
Protein Wnt-3a = Protein Wnt-3a (Mus musculus, UniProt P27467); test: Wnt3a-driven reporter signaling inhibition, dose response, selectivity assay for Gli-SUFU antagonist project, Wnt-LIGHT cells, luminescence (AID 651570); format: functional; settings: read-out: IC50_Mean;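 note: Wnt-LIGHT reporter cells stimulated with conditioned medium from Wnt3a-producing cells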
Sequence of Protein Wnt-3a (P27467 whole entry): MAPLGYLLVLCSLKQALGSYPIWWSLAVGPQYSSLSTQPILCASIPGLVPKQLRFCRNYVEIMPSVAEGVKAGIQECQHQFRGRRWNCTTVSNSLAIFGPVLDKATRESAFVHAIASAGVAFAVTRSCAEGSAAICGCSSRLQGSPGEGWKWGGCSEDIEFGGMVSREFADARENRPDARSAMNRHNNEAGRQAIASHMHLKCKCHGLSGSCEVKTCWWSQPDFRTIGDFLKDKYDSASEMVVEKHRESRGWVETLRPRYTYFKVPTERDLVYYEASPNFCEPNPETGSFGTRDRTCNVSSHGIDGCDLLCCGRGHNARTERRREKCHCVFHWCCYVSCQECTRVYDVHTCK

[24] = target: Long-chain-fatty-acid--AMP ligase FadD28 (Mycobacterium tuberculosis, UniProt P9WQ59); test: Fluorescence polarization aasay to screen for inhibitors that compete for the binding of FadD28 to a bisubstrate Measured in Biochemical System Using Plate Reader - 2147-01_Inhibitor_Dose_CherryPick_Activity.; format: functional, Mycobacterium tuberculosis H37Rv
Sequence of Long-chain-fatty-acid--AMP ligase FadD28 (P9WQ59 whole entry): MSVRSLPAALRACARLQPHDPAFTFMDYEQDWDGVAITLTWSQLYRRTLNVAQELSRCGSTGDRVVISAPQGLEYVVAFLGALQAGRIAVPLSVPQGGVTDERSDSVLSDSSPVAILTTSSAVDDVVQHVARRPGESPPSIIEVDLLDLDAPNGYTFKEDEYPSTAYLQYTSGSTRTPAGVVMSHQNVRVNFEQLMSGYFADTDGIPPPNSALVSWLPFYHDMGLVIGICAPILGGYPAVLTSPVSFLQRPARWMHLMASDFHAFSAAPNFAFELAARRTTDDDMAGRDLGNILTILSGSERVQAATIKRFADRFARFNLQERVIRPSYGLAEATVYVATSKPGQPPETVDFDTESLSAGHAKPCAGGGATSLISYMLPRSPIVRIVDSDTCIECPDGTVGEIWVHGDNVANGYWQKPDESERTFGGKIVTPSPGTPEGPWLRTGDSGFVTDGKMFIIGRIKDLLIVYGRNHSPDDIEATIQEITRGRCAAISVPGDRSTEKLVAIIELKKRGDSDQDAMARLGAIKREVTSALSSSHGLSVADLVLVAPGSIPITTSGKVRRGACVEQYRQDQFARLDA

[25] = NIH-3T3 fibroblast cytotoxicity, dose response, cytotoxicity control, cell-based, fluorescence, Alamar Blue, secondary assay (AID 2327); format: functional;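 note: NIH-3T3 mouse fibroblasts cultured with fluconazole at 8 µg/mL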
INS1 = test: beta cell apoptosis inhibitors, cytokine rescue, dose response, luminescence, retest (AID 449756); format: functional, cell-based; settings: Rattus norvegicus;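 note: cell death triggered by IL-1 beta plus TNF-alpha plus IFN-gamma mixture; protective hits raise ATP signal compared with cytokine alone wells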
[26] = growth suppression of PTEN-null colon cells, dose response, cell-based, HCT116 PTEN knockout (AID 1047); format: functional;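 note: HCT116 colon tumor cells with PTEN knocked out; cells exposed to compound for 60 hours before readout; potency for loss of cell viability measured by luminescence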
[27] = target: Benomyl/methotrexate resistance protein (Candida albicans, UniProt P28873); test: CaMdr1 efflux pump inhibitor potency, dose response, singleplex, Cherry Pick1 hits (AID 588608); format: functional
Sequence of Benomyl/methotrexate resistance protein (P28873 whole entry): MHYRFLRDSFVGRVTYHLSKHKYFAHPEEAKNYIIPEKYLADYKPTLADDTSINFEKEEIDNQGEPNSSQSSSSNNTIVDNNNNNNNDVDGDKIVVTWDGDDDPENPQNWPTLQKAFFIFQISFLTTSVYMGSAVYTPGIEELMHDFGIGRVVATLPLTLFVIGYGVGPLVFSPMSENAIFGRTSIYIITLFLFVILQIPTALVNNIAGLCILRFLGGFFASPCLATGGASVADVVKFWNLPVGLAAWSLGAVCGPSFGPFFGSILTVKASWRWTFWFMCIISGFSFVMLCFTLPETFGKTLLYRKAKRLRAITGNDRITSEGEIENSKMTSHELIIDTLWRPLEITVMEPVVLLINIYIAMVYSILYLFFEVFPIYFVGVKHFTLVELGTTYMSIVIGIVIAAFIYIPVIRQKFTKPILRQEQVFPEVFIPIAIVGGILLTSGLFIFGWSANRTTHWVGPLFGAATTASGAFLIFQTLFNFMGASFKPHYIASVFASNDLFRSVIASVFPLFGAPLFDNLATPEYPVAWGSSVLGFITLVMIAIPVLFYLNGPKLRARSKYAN

[28] = cytotoxicity in HEK-293T cells, dose response, cytotoxicity control for TCR NF-kB inhibitor project, luminescence, T-cell screen hits (AID 489026); format: functional, cell-based;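 note: cells exposed to compound about 14 hours before the viability readout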
[29] = growth suppression of beta-catenin-knockout colon cells, dose response, cell-based, HCT116, human colon tumor (AID 1045); format: functional;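 note: HCT116 colon tumor cells with beta catenin knocked out; cells exposed to compound for 60 hours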
[30] = target: Fructose-bisphosphate aldolase (Mycobacterium tuberculosis, UniProt P9WQA3); test: Fluorescence-based biochemical high throughput dose response assay for inhibitors of the fructose-bisphosphate aldolase (FBA) of M. tuberculosis.; format: functional
Sequence of Fructose-bisphosphate aldolase (P9WQA3 whole entry): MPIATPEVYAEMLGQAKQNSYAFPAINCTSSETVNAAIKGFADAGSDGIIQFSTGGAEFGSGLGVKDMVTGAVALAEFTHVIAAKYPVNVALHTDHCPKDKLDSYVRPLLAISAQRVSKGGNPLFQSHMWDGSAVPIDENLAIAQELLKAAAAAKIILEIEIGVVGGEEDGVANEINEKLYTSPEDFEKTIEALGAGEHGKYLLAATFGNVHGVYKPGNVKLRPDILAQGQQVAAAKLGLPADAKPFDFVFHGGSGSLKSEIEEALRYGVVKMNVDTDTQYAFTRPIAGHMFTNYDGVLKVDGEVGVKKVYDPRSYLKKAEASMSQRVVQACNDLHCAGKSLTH

Melanocortin receptor 4 = Melanocortin receptor 4 (Homo sapiens, UniProt P32245); format: functional, cell-based;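 note: Cell-based assay with luminescence read-out, confirmatory dose-response testing for agonist activity of biased ligands at MC4R; human U2OS cells with tagged receptor and beta-arrestin; potency of agonists that increase receptor coupling to beta-arrestin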
Sequence of Melanocortin receptor 4 (P32245 whole entry): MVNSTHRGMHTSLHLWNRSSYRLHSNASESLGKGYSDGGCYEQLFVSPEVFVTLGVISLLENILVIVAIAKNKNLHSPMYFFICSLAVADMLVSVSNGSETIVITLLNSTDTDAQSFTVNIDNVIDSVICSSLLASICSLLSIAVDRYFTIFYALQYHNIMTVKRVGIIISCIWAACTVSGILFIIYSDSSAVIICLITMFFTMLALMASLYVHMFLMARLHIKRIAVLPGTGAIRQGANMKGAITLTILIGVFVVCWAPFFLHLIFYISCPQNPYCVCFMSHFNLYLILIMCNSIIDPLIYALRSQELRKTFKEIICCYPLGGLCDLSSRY

cells [31] = format: functional, cell-based
cells [32] = format: functional, cell-based; remark: listed apart in the source
[33] = target: T4, Sentrin-specific protease 8 (Homo sapiens, UniProt Q96LD8); format: functional
T4 sequence (Q96LD8 whole entry): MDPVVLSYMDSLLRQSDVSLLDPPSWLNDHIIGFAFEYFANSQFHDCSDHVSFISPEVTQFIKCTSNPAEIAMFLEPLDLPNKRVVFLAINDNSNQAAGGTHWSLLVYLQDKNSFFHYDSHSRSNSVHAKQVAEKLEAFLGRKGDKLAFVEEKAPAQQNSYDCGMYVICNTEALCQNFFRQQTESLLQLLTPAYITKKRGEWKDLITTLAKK

Beta Lactamase = Beta Lactamase (Pseudomonas aeruginosa, UniProt Q932Y6); test: beta-lactamase reporter inhibitor potency, dose response, artefact control for TLR9-MyD88 binding inhibitor project, BLA reporter cells, FRET fluorescence (AID 588341); format: cell-based;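 note: cell based assay in CHO-K1 cells stably expressing beta-lactamase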
Sequence of Beta Lactamase (Q932Y6 whole entry, the tested form may be a part): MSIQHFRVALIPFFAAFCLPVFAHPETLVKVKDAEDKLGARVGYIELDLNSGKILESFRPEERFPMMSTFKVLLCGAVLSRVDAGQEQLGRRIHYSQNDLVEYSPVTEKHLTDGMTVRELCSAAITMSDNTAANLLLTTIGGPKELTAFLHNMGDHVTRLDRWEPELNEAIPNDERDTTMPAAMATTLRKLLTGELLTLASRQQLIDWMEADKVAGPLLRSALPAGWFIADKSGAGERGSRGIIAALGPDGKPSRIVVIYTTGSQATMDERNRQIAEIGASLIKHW

CHO = test: cytotoxicity in TLR9-MyD88 CHO cells, dose response, cytotoxicity control for TLR9-MyD88 binding inhibitor project, cell-based, luminescence (AID 588339); format: functional, hamster; settings: Cricetulus griseus;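 note: CHO cells stably coexpressing TLR9 and MyD88 fusions from primary screen; compound exposure lasted 48 hours before viability readout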
[34] = target: T4, Sentrin-specific protease 8; format: functional; remark: listed apart in the source

Structure (SMILES): COc1ccc(NC(=O)c2ccc(-c3ccc(-c4noc(C)n4)cc3C)cc2)cc1N1CCN(C)CC1
- IC50 [1]: > 20 µM (inactive)
- AC50 [2]: 7.71 µM (active)
- AC50 [3]: 22.7 µM (active)
- AC50 [4]: 14.5 µM (active)
- AC50 [5]: 27.6 µM (active)
- AC50 [6]: 14.4 µM (active)
- AC50 [7]: 8.17 µM (active)
- AC50 [8]: 8.08 µM (active)
- AC50 [9]: 79 µM (active)

Structure (SMILES): O=C(Nc1ccc(S(=O)(=O)Nc2ccccn2)cc1)c1ccc(Cl)cc1Cl
- IC50 [10]: 12.8 µM (active)
- IC50 [11]: 3.81 µM (active)
- IC50 [12]: 4.17 µM (active)

Structure (SMILES): CCc1cc(CNC(=O)c2ccc(OC)c(OC3CCN(C(C)C)CC3)c2)on1
- IC50 [10]: 0.0189 µM (active)
- IC50 [11]: 0.597 µM (active)
- IC50 [12]: 0.316 µM (active)

Structure (SMILES): O=C(Nc1ccc(S(=O)(=O)N2CCOCC2)cc1)c1cccc([N+](=O)[O-])c1
- IC50 [13]: 12 µM (inactive)
- IC50 (Steroidogenic factor 1): 2.2 µM (active)
- IC50 [14]: 35.9 µM (inactive)

Structure (SMILES): CCN(CC)C(=O)c1sc2nc(-c3ccccn3)nc(O)c2c1C
- AC50 [15]: 77.1 µM (active)

Structure (SMILES): CC(=O)c1cn(Cc2ccccc2F)c2ccccc12
- EC50 (HEK293 [16]): 2.96 µM (active)
- AC50 [17]: 3.35 µM (active)
- IC50 (HEK293 [18]): > 20 µM (inactive)
- IC50 (HEK293 [19]): 5 µM (active)
- AC50 [20]: 2.96 µM (active)
- IC50 (HEK293 [21]): > 20 µM (inactive)
- EC50 [22]: 4.05 µM (active)
- AC50 [23]: 9.56 µM (active)
- IC50 (Protein Wnt-3a): 0.491 µM (active)

Structure (SMILES): COc1cccc(NC(=O)Cn2nnc(-c3ccccc3N)n2)c1
- AC50 [24]: 66.6 µM (active)

Structure (SMILES): C#CC[N+](C)(C)CCCCCCCCCCCC
- EC50 [25]: > 160 µM (inconclusive)
- AC50 (INS1): 4.61 µM (active)
- EC50 [26]: 2.9 µM (active)
- EC50 [27]: 0.312 µM (active)
- IC50 [28]: > 80 µM (inactive)
- EC50 [29]: 3.33 µM (active)
- IC50 (Protein Wnt-3a): 0.279 µM (active)

Structure (SMILES): COc1ccc(CCNC(=O)COC(=O)C23CC4CC(CC(Br)(C4)C2)C3)cc1
- IC50 [13]: 16.6 µM (inactive)
- IC50 (Steroidogenic factor 1): 4.45 µM (active)
- IC50 [14]: 35.9 µM (inactive)

Structure (SMILES): O=C(COC(=O)c1cccs1)Nc1nnc(-c2ccccc2)o1
- AC50 [15]: 102 µM (active)

Structure (SMILES): Cc1nn(C)cc1-c1cc(C(=O)O)c2ccccc2n1
- IC50 [30]: 1.91 µM (active)

Structure (SMILES): COc1cccc(-c2cnc3c(NC(C)=O)cc(-c4ccsc4)cn23)c1
- EC50 (Melanocortin receptor 4): 26.2 µM (inactive)

Structure (SMILES): O=C1CCC(=O)c2ccc3c4c(ccc1c24)CC3
- IC50 [30]: 1.56 µM (active)

Structure (SMILES): COc1ccc(/C=N/NC(=O)c2ccc(COc3ccccc3Cl)o2)c(OC)c1C
- EC50 (Melanocortin receptor 4): > 89.2 µM (inactive)

Structure (SMILES): COC(=O)[C@]12C[C@H](CC(=O)NCCc3ccccc3OC)C(=O)N(Cc3ccc4c(c3)OCO4)C1=C[C@H](COCc1ccccc1)O[C@@H]2C
- IC50 (cells [31]): > 29.9 µM (inactive)
- EC50 (cells [32]): > 29.9 µM (inactive)

Structure (SMILES): Cc1ccc(SCc2c(C(=O)N/N=C/c3ccoc3)nnn2-c2nonc2N)cc1
- AC50 [24]: > 100 µM (inactive)

Structure (SMILES): O=C1Cc2ccccc2C(=O)N1c1ccccc1
- IC50 [33]: > 100 µM (inactive)
- IC50 (Beta Lactamase): 3.97 µM (active)
- IC50 (CHO): > 49.7 µM (inactive)
- IC50 [34]: 12.9 µM (active)
